Molecules are shown by their SMILES. Entries after “also recorded” stand apart in the source; their conditions may differ.

Series [1] is described as follows: Solubility determination in 0.9% NaCl and 0.5% polysorbate 80 (HPLC of filtrate). The class given is physicochemical. To be noted: RT, aqueous vehicle with 0.9% NaCl and 0.5% polysorbate 80, at 24 hours. How it is done:
Sample preparation: excess Type 4 was added to the vehicle containing 0.9% NaCl and 0.5% polysorbate 80. The mixture was sonicated for 15 minutes, then agitated at 500 rpm at room temperature. At 24 hours, the mixture was filtrated, and filtrate was analyzed by HPLC to determine the solubility. • Instrument: Agilent 1260 • Column: ACE ultracore super C18 (100 mm*4.6 mm*2.5 μm) (P/N: CORE-25A-1046U) • Wavelength: 234 nm • Column Temperature: 20° C. • Column Flow: 1.0 mL/min • Acquisition time: 25 min • Injection volume: 5 μL • Retention time: ˜14 min • Mobile Phase A: 5 mM (NH4)2HPO4 and 5 mM of NH4H2PO4 in H2O • Mobile Phase B: ACN The solubility of Form C (hemihydrate as disclosed in WO 2018/096170) was determined in the same media used to determine the solubility of Type 4 as described above. Sample preparation: excess Form C was added to the vehicle containing 0.9% NaCl and 0.5% polysorbate 80. The mixture was sonicated for 15 minutes, then agitated at 500 rpm at room temperature. […]

Series [2] in a line: Dynamic vapor sorption (DVS) humidity stability, with XRPD post-DVS. The class given is physicochemical. How it is done: Powder X-Ray Diffraction (PXRD): PXRD diffractograms were acquired on Rigaku Smartlab SE diffractometer using Cu, Kα, Kα1(Å):1.540598, Kα2(Å):1.544426 radiation with a Kα2:Kα1 intensity ratio of 0.50. X-Ray tube setting was 40 kV, 15 mA, Scan Mode 1D. The scan range (2 theta) was 3-40°, step size (2 theta) of 0.02° with scan speed (2 theta) of 10°/min. Dynamic Vapor Sorption (DVS): DVS analysis was performed on an Adventure DVS instrument, using a partial pressure range of 0-90%, with a step size of 10% and dm/dt=0.002. DVS data was collected at 25° C. 2 cycles were performed per analysis. Gas flow of N2 (200 sccm) was used.

[3] abbreviates: DVS at 25° C., 0-90% partial pressure, 2 cycles.

For the molecule `Cc1nc(N(C)C(=O)Cc2ccc(-c3ccccn3)cc2)sc1S(N)(=O)=O` [Form C, N-methyl-N-(4-methyl-5-sulfamoylthiazol-2-yl)-2-(4-(pyridin-2-yl)phenyl)acetamide, reference compound], the solubility result in series [1] is reported as “around 8.4 μg/mL”.

Turning to `Cc1nc(N(C)C(=O)Cc2ccc(-c3ccccn3)cc2)sc1S(N)(=O)=O` [Type 4, N-methyl-N-(4-methyl-5-sulfamoylthiazol-2-yl)-2-(4-(pyridin-2-yl)phenyl)acetamide], in series [2] (setting [3]), the “relative humidity at which the form is stable (DVS)” value is “greater than 20%” and the “relative humidity at which weight loss is observed (DVS)” value is “less than 10%”. For the same molecule, the “solid form post DVS experiment by XRPD” value in series [2] (after DVS, XRPD) was “confirmed as Type 4”. For the same molecule, the “stability to humidity (in words)” value in series [2] (conclusion from the characterization data of Example 1) is “stable across a large humidity range; also recorded: stable across a wide range of humidity levels”. Further, the solubility entry in series [1] is recorded as “around 18.2 μg/mL”.

The record behind these values is patent US20260070900A1, “A NOVEL CRYSTALLINE FORM OF PRITELIVIR” (Assembly Biosciences, Inc., priority 2022, published 2026).
